Experiment: refractive index (other wavelength) (dimensionless); xn = mol fraction of the nth substance listed
Conditions: 101 kPa, Liquid, Standard Abbe refractometry

CC(C)OC(C)C [diisopropyl ether] + CO
refractive index
Conditions	Wavelength=40.47 nm	Wavelength=435.8 nm	Wavelength=486.1 nm	Wavelength=546.1 nm	Wavelength=587.6 nm	Wavelength=589.3 nm	Wavelength=632.8 nm	Wavelength=644 nm	Wavelength=706.5 nm
298.15 K, x2 = 0	–	–	–	–	–	1.3653	1.36402	1.36373	1.36237
298.15 K, x2 = 0.0423	–	–	–	–	–	1.36528	1.364	1.3637	1.36228
298.15 K, x2 = 0.0424	–	–	–	–	–	1.36525	1.36397	1.36367	1.36226
298.15 K, x2 = 0.082	–	–	–	–	–	1.36523	1.36395	1.36365	1.36224
298.15 K, x2 = 0.0822	–	–	–	–	–	1.36524	1.36396	1.36367	1.36226
298.15 K, x2 = 0.1171	–	–	–	–	–	1.36508	1.36381	1.36352	1.3621
298.15 K, x2 = 0.1271	–	–	–	–	–	1.3651	1.36381	1.36352	1.36211
298.15 K, x2 = 0.1827	–	–	–	–	–	1.36473	1.36346	1.36317	1.36175
298.15 K, x2 = 0.2162	–	–	–	–	–	1.36528	1.364	1.3637	1.36228
298.15 K, x2 = 0.251	–	–	–	–	–	1.36465	1.36338	1.36308	1.36166
298.15 K, x2 = 0.3298	–	–	–	–	–	1.36386	1.3626	1.36231	1.36089
298.15 K, x2 = 0.3577	–	–	–	–	–	1.36246	1.36121	1.36091	1.35951
298.15 K, x2 = 0.4497	–	–	–	–	–	1.36158	1.36034	1.36004	1.35863
298.15 K, x2 = 0.4525	–	–	–	–	1.36217	1.36212	1.36087	1.36057	1.35916
298.15 K, x2 = 0.522	–	–	–	–	1.35991	1.35986	1.35863	1.35833	1.35694
298.15 K, x2 = 0.5543	–	–	–	–	1.35952	1.35947	1.35812	1.35777	1.35655
298.15 K, x2 = 0.609	–	–	–	–	1.35663	1.35658	1.35536	1.35507	1.35369
298.15 K, x2 = 0.6529	–	–	–	–	1.35515	1.3551	1.35389	1.3536	1.35223
298.15 K, x2 = 0.7504	–	–	–	–	1.3513	1.35125	1.35005	1.34978	1.34842
298.15 K, x2 = 0.804	–	–	–	–	1.3471	1.34706	1.3459	1.34562	1.34426
298.15 K, x2 = 0.807	–	–	–	–	1.34699	1.34694	1.34578	1.3455	1.34415
298.15 K, x2 = 0.8727	–	–	–	–	1.34182	1.34177	1.34062	1.34036	1.33906
298.15 K, x2 = 0.9233	–	–	–	–	1.33495	1.3349	1.33379	1.33353	1.33225
298.15 K, x2 = 0.9253	–	–	–	–	1.33679	1.33674	1.33564	1.33535	1.33407
298.15 K, x2 = 0.9527	–	–	–	–	1.33364	1.33359	1.33248	1.33222	–
298.15 K, x2 = 0.9773	–	–	–	–	1.33017	1.33012	1.32903	1.32879	1.32755
298.15 K, x2 = 0.989	–	–	–	–	1.329	1.32895	1.32786	1.32761	1.32641
298.15 K, x2 = 0.9964	–	–	–	–	1.32759	1.32754	1.32645	1.32621	1.32502
303.15 K, x2 = 0	1.37321	1.37022	1.36687	1.36406	1.3626	1.36255	1.3613	1.361	1.3596
303.15 K, x2 = 0.0423	1.37316	1.37019	–	–	–	–	–	–	–
303.15 K, x2 = 0.0424	1.37317	1.37022	1.36682	1.36403	1.36256	1.36251	1.36124	1.36094	1.35954
303.15 K, x2 = 0.082	1.3731	1.37014	1.36677	1.36396	1.3625	1.36245	1.3612	1.3609	1.35948
303.15 K, x2 = 0.0822	1.37318	1.37022	1.36685	1.36406	1.36261	1.36256	1.36129	1.36099	–
303.15 K, x2 = 0.1171	1.37301	1.37006	1.36669	1.36389	1.36245	1.3624	1.36114	1.36084	1.35943
303.15 K, x2 = 0.1271	1.37303	1.37006	1.36672	1.36392	1.36246	1.3624	1.36116	1.36086	1.35944
303.15 K, x2 = 0.1827	1.37268	1.36973	1.36639	1.36258	1.36214	1.36209	1.36085	1.36055	1.35913
303.15 K, x2 = 0.2162	1.37251	1.36956	1.36618	1.36341	1.36196	1.36191	1.36065	1.36036	1.35895
303.15 K, x2 = 0.251	1.3735	1.36955	1.36621	1.36343	1.36198	1.36193	1.36068	1.36039	1.35898
303.15 K, x2 = 0.3298	1.37186	1.36893	1.36561	1.36283	1.3614	1.36134	1.36011	1.35981	1.35839
303.15 K, x2 = 0.3577	1.37205	1.36912	1.36581	1.36302	1.36159	1.36153	1.36029	1.35999	1.35898
303.15 K, x2 = 0.4497	1.3695	1.36661	1.36334	1.36058	1.35917	1.35912	1.35789	1.3576	1.35619
303.15 K, x2 = 0.4525	1.37001	1.36711	1.36382	1.36107	1.35964	1.35959	1.35835	1.35805	1.35666
303.15 K, x2 = 0.522	1.3677	1.36484	1.36159	1.35886	1.35746	1.35741	1.35619	1.3559	1.3545
303.15 K, x2 = 0.5543	1.36716	1.36432	1.36106	1.35836	1.35695	1.3569	1.35568	1.35539	1.35399
303.15 K, x2 = 0.609	1.36428	1.36149	1.35828	1.35561	1.35421	1.35416	1.35295	1.35266	1.35129
303.15 K, x2 = 0.6529	1.36277	1.35999	1.35681	1.35414	1.35275	1.35269	1.3515	1.35122	1.34985
303.15 K, x2 = 0.7504	1.35877	1.35604	1.35295	1.35029	1.34898	1.34888	1.34771	1.34743	1.34608
303.15 K, x2 = 0.804	1.35438	1.35174	1.34869	1.34608	1.34474	1.34469	1.34354	1.34327	1.34193
303.15 K, x2 = 0.807	1.35432	1.35168	1.34861	1.34603	1.34467	1.34462	1.34346	1.3432	1.34186
303.15 K, x2 = 0.8727	1.34909	1.34651	1.34352	1.34092	1.33965	1.3396	1.33846	1.3382	1.33691
303.15 K, x2 = 0.9233	1.34198	1.3395	1.33657	1.33409	1.33279	1.33274	1.33164	1.33139	1.33015
303.15 K, x2 = 0.9253	1.34381	1.34132	1.33839	1.3359	1.33458	1.33453	1.33342	1.33317	1.3319
303.15 K, x2 = 0.9527	1.34063	1.33817	1.33525	1.33279	1.3315	1.33145	1.33035	1.33009	1.32886
303.15 K, x2 = 0.9773	1.33704	1.33466	1.33174	1.32933	1.32803	1.32799	1.32689	1.32665	1.32546
303.15 K, x2 = 0.989	1.33587	1.33351	1.33062	1.3282	1.32693	1.32688	1.32579	1.32555	1.32216
303.15 K, x2 = 0.9964	1.33483	1.33219	1.32929	1.32688	1.32561	1.32557	1.32451	1.32427	1.32308
308.15 K, x2 = 0	1.37035	–	–	–	–	–	–	–	–
308.15 K, x2 = 0.0423	1.37024	–	–	–	–	–	–	–	–
308.15 K, x2 = 0.0424	1.37025	–	–	–	–	–	–	–	–
308.15 K, x2 = 0.082	1.37021	–	–	–	–	–	–	–	–

— the NIST ThermoML archive (doi:10.1016/j.fluid.2014.09.014)
